“Also recorded” adds a separate entry of the source.
How the values were obtained:
HT22 neuronal cells = experiment: HT22 glutamate injury model, cell viability by XTT assay; assay type: cell-based; conditions: for neuroprotection in glutamate injury model: 1 μM LXB4, glutamate challenge
Excerpt: In order to confirm the bioactivity of the synthesized material, its neuroprotective effects were confirmed in a neuronal injury model. Recent clinical failures of a variety of neuroprotection trials have intensified interest in new treatment strategies. Evidence is accumulating that lipoxins and other lipid mediators can have an important impact on neuroinflammation and neuronal survival.[13,38] […] Yet the lack of efficient syntheses of LXB4 coupled with the expensive cost from commercial sources (USD$806/100 μg, Cayman Chemical)[36] have made this new mechanism of action challenging to modify and study. In this regard the presently described synthetic route towards LXB4, and analogues thereof, provide a benefit for improving production and/or reducing cost of production of LXB4 and analogues thereof. Therefore, the neuroprotective activity of newly synthesized LXB4 was compared it against the commercial source to confirm its activity.[36] For this assay, HT22 neuronal cells were pre-treated with LXB4 from both sources (commercial vs. in-house), followed by a glutamate challenge to induce excitotoxic cell death.[14] Cell viability was then measured using an XTT assay.
HT22 cells (SCC129, EMD Millipore) were grown on 100-mm tissue culture dishes (83.3902.300, Sarstedt) and maintained in high glucose DMEM (Sigma, D5796-500ML) supplemented with 10% fetal bovine serum (080-150, Wisent) and 1% Penstrep (15140122, Gibco) at 37° C. in a 5% CO2 atmosphere incubator (67/340,1045, CellXpert C170, Eppendorf). Cells used for experiments were maintained at a <80% confluency and <25 passages, and were dissociated using TrypIE (12604013, Gibco).
HT22 cells were seeded at 4×10^3 cells in 100 μL of the high glucose DMEM+10% fetal bovine serum+1% Penstrep media on replicate wells of 96-well plates (83.3924.300, Sarstedt) for 20 hours at 37° C. in a 5% CO2 atmosphere humidified incubator. Cells were then pretreated with 5 μL of the indicated LXB4 concentration, or vehicle, one hour prior to addition of 3 mM glutamate stressor. Cells were exposed for 13 hours, then evaluated for cell viability using an XTT assay, according to the manufacturer's instructions (11465015001, Roche). The resulting absorbance values were read in a BMG CLARIOstar microplate reader under 490 nm excitation following 2 hours of XTT incubation and analyzed using Graphpad Prism 9 for ANOVA analyses and curve fitting.

[1] = Storage and handling stability of LXB4; assay type: physicochemical
Experimental: Instability of LXB4 presented a substantial obstacle its synthesis and purification. […] Telescoping the final transformations from 27 to 2, preventing light exposure, and storing all crude intermediates in a methanol solution were required to obtain LXB4 of sufficient purity. LXB4 could be stored as a solution in methanol or ethanol at −20° C. for several weeks or at −80° C. for one to three months before substantial degradation was observed.
Dimethylethoxysilane (560 uL, 4.03 mmol, 8.0 equiv.) was added in one portion, followed by dropwise addition of Karstedt's catalyst (platinum(0)-1,3-divinyl-1,1,3,3,-tetramethyldisoloxane complex, 2% Pt) (115 μL, 0.010 mmol, 2 mol %). The round bottom flask was covered with foil to prevent UV exposure and the solution was stirred overnight at room temperature. […] The crude reaction mixture was filtered through a silica plug, which was washed with Et2O, and the collected filtrate was dried under vacuum to afford a yellow-brown oil. This oil was redissolved in anhydrous THF (4.4 mL) under argon. The solution was again wrapped in foil, and a solution of TBAF in THF (1.0 M, 4.0 mL, 8.0 equiv.) was added dropwise. The reaction was stirred at room temperature for 20 minutes. […] Another […] was added dropwise. […] The reaction was quenched by the addition of phosphate buffer (pH 7) and water and extracted with diethyl ether. The combined organic phase was dried over Na2SO4 and concentrated in vacuo. The crude oil was immediately redissolved in THF/H2O (3:1, 2.5 mL) and treated with LiOH (12.1 mg, 0.50 mmol, 1.0 equiv.) mmol. The resulting solution was stirred at room temperature in a round-bottom flask wrapped in aluminium foil until TLC indicated complete conversion. The reaction mixture was flash filtered through celite to remove any residual LiOH solid and washed with THF. The remaining solvent was removed in vacuo to afford a sticky yellow residue, which was immediately redissolved in MeOH. […] This material was purified by reverse phase HPLC (XBridge BEH OBD Prep column, 130A, 5 μM, 30 mm×150 mm) using a mobile phase of H2O+0.05% NH4OH (A) and acetonitrile+0.05% NH4OH (B) and a gradient elution of 97:3 A:B to 67:33 A:B. After lyophilization, we obtained 98.7 mg of LXB4 for a yield of 56% over three steps. LXB4 should be stored on dry ice until injected into the HPLC. In a solution in methanol at room temperature, formation of impurities which are extremely difficult to separate by HPLC occurred in 1-2 hours.

neuronal cell types = conditions: cited from earlier work
[2] = test system: retinal ganglion cell death; conditions: acute and chronic models of retinal ganglion cell death, glaucoma; cited from earlier work

Row | Compound | neuroprotection in glutamate injury model (HT22 neuronal cells; n=8, p<0.05) | stability to air and light [1] | stability in HPLC buffer ([1]; HPLC buffer) | stability stored as a solid ([1]; crude or purified material, room temperature) | stability stored as a solid ([1]; low temperature (−20° C.)) | time to formation of impurities ([1]; solution in methanol at room temperature) [h] | storage time before substantial degradation ([1]; solution in methanol or ethanol at −20° C.) | storage time before substantial degradation ([1]; solution in methanol or ethanol at −80° C.) | neuroprotection in glutamate injury model (HT22 neuronal cells; n=8, p<0.05, listed as synthesized LXB4) | EC50 (HT22 neuronal cells; Mus musculus, HT-22, glutamate injury, dose response curve, n=8) [nM] | potency relative to LXA4 (neuronal cell types; established neuronal injury model, also primary cortical, hippocampal and retinal ganglion cells) [fold] | potency and efficacy in direct neuroprotection compared with LXA4 (neuronal cell types; variety of neuronal cell types, acute and chronic injury models of glaucoma) | efficacy in vivo [2]
1 | CCCCC[C@H](O)[C@H](O)/C=C/C=C/C=C\C=C\[C@@H](O)CCCC(=O)O [commercial LXB4, reference compound] | significantly neuroprotective; also recorded: significant protection |  |  |  |  |  |  |  |  |  |  |  | 
2 | CCCCC[C@H](O)[C@H](O)/C=C/C=C/C=C\C=C\[C@@H](O)CCCC(=O)O [LXB4, (5S,6E,8Z,10E,12E,14R,15S)-5,14,15-trihydroxyicosa-6,8,10,12-tetraenoic acid] | significantly neuroprotective | highly unstable | stable in HPLC buffer for several hours | rapid degradation | rapid degradation | 1 to 2 | several weeks | one to three | significant protection | 293 | 20 | significantly more potent and efficacious than LXA4 | efficacy in vivo
